Test results: US10596296B2, “Heparan sulphates” (Agency for Science, Technology and Research, priority 2014, dated 2020)
“Also recorded” adds a separate entry of the source.

Experiments:
[1] = test system: chondrogenic differentiation of hMSCs; assay: Wet weight of chondrogenic micromass pellets; format: cell-based, human; settings: 10 ng/mL TGF-β1 vs control; days 3, 7, 14 and 21
Experimental: (§1) In order to assess the effects of HS16+ve on the chondrogenic differentiation of hMSCs in vitro, it was first necessary to establish the effects of TGF-β1 alone. Chondrogenic differentiation was carried out using a modified micromass culture system. [Zhang, L., et al., Chondrogenic differentiation of human mesenchymal stem cells: a comparison between micromass and pellet culture systems. Biotechnol Lett, 2010. 32(9): p. 1339-1346.]. Briefly, passage 4 hMSCs were harvested and resuspended in chemically defined chondrogenic media (PT-3003, Lonza, MD, USA) at 2×10^7 cells/mL. Droplets of 12.5 μL were then seeded into the middle of each well in a 24-well plate and left to adhere at 37° C. for 2 h, after which, 500 μL of chondrogenic media supplemented with either 1 or 10 ng/mL of TGF-β1 (100-210, PeproTech) alone or with either 5 or 10 μg/mL of heparin (Sigma-Aldrich), porcine mucosal HS (HSPM) (Celsus laboratories), HS16+ve or HS16-ve was added to each well. The cell droplets coalesced into spherical masses after 24 h. Media was changed every 3 days and the micromasses harvested on days 3, 7, 14 and 21.
Wet weights of the resulting control (Ctrl) and TGF-β1-treated (10 ng/mL) (TGF-β1) micromass pellets were taken at days 3, 7, 14 and 21 (FIG. 15).

[2] = test system: chondrogenic differentiation of hMSCs; assay: Alcian blue staining of chondrogenic micromass pellets; format: cell-based, human
Experimental: as §1

TGF-β1 = biological target: T1, TGF-β1 (Homo sapiens, UniProt P01137); assay: Differential scanning fluorimetry (DSF) of TGF-β1; format: binding
T1 construct: full length mature TGF-β1 is 112 amino acids in length
T1 sequence (P01137 279-390 limits assumed): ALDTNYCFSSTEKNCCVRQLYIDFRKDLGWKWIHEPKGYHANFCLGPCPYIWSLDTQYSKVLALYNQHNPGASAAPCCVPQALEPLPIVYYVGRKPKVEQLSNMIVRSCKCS
Experimental: DSF was performed on a 7500 Fast Real PCR System (software version 1.4, Applied Biosystems), as described previously (34,35). TGF-β1 (2.5 μM) was tested with or without heparin (25 μM). To facilitate the melting of TGF-β1, 10 mM of dithiothreitol (DTT) was added to the reaction mix. Experiments were run as previously described (34). First derivatives of the melting curves were calculated using Origin 7 (OriginLab Corp.) to determine the melting temperature of TGF-β1 under the various conditions.

[3] = test system: TGF-β1 signaling (pSMAD2, pSMAD3) in hMSCs; assay: Western blotting of pSMAD2/pSMAD3 in hMSCs treated with TGF-β1 and GAG; format: cell-based, human; settings: 6, 12, 24 and 48 h
Experimental: Primary hMSCs (Lonza) were isolated from the bone marrow mononuclear cells of a young healthy adult human donor by plastic adherence and characterized as previously described (30,31). The adherent cells were maintained in a basal media consisting of DMEM-low glucose (1000 mg/l, DMEM-LG) supplemented with 10% fetal calf serum, 100 U/ml penicillin, 100 μg/ml streptomycin and 2 mM L-glutamine, and cultured under standard conditions at 37° C. and 5% CO2 in a humidified atmosphere. Media replacement was every three days. Cells were detached with 0.125% trypsin/Versene (pH 7.0) upon reaching 75-80% confluence, and re-plated at a density of 3,000 cells/cm^2 under the same culture conditions. All experiments were carried out with cells at passage 5.
Human MSCs were cultured in 6-well plates in basal media for 24 h at a density of 10,000 cells/cm^2. TGF-β1 treatments were then prepared at either 1 ng/ml or 5 ng/ml alone or in the presence of either 10 μg/ml or 40 μg/ml of full length heparin, or 1 ng/ml of TGF-β1 with 10 μg/ml size-fractionated or selectively desulfated heparin, HS^PM, HS16+ or HS16−, and incubated at room temperature for 10 min before being added to the cells. Latent TGF-β1 (LTGF-β1) treatments were similarly prepared at 3.3 ng/ml alone or with 10 μg/ml of the various GAGs described above. For inhibitor studies, the cells were pre-treated for 30 min with 10 μM SB431542 (Sigma-Aldrich) or DMSO before treatment with TGF-β1. […] Samples were then immunoblotted with antibodies against SMAD2/3 (#3102, Cell Signaling), phosphorylated SMAD2 (pSMAD2, #3108, Cell Signaling), phosphorylated SMAD3 (pSMAD3, #9520, Cell Signaling) and actin (MAB1501R, Millipore). Densitometry was carried out using Quantity One software (version 4.6.6, Bio-Rad).

[4] = test system: chondrogenic differentiation of hMSCs; assay: qPCR of chondrogenic micromass pellets (Example 2); format: cell-based, human
Experimental: Total RNA was isolated from chondrogenic micromass pellets using TRIZOL reagent (Life Technologies, CA, USA) according to the manufacturer's protocol. Reverse transcription was carried out on 1 μg RNA using the SuperScript® VILO™ cDNA Synthesis Kit (Life Technologies) following the manufacturer's instructions, with the incubation at 42° C. being carried out for 2 h instead of 1 h. Each qPCR contained 40 ng cDNA, 1 μL TaqMan® primer-probe mix per gene, and 10 μL Taqman® Fast Universal PCR Master Mix (Life Technologies) in a final volume of 20 μL. Thermal cycling conditions were 95° C. for 20 s, followed by 45 cycles of 95° C. for 1 s and 60° C. for 20 s. Each qPCR was run in duplicate and gene expression was normalised to HPRT1 expression to obtain the ΔCt value. The average value of biological triplicates was taken. Chondrogenic micromass pellets cultured in media without GAG or TGF-β1 were used as controls (ΔΔCt). Relative expression levels for each primer set were expressed as fold changes by the 2-ΔΔCt method [Livak, K. J. and T. D. Schmittgen, Analysis of Relative Gene Expression Data Using Real-Time Quantitative PCR and the 2-ΔΔCT Method. Methods, 2001. 25(4): p. 402-408]. The following TaqMan® primer-probe assays (Life technologies) were used:
as §1
Next, hMSCs were differentiated for 21 days in the presence of 1 ng/mL TGF-β1 alone (1 TGF-β1) or in combination with 10 μg/mL of GAG (heparin, HSPM, HS16+ve or HS16−ve) or with 10 ng/mL TGF-β1 (10 TGF-β1) as a positive control.

[5] = 10 ng/mL TGF-β1, days 3, 7, 14 and 21

TGF-β1: transforming growth factor-β1 protein (PeproTech)
wet weight of micromass pellets over time [1]: weight loss was less pronounced
GAG production by Alcian blue staining, 10 ng/mL vs 1 ng/mL TGF-β1 ([2]; 21 days): increase in GAG production and deposition; also recorded: modest increase in GAG production
GAG content by Alcian blue staining vs control pellets ([2]; day 21, 10 ng/mL TGF-β1): more GAGs
melting temperature of TGF-β1 (TGF-β1; with 10 mM DTT, without heparin): 44 °C
melting temperature of TGF-β1 alone (TGF-β1; without DTT): 66 °C
pSMAD2 signal ([3]; 1 ng/mL TGF-β1): quite intense at 6 h post treatment, and started to subside from 12 h onwards
pSMAD2 signal ([3]; 5 ng/mL and 10 ng/mL TGF-β1): remain saturated across all the time points tested
pSMAD3 signal ([3]; 5 ng/mL and 10 ng/mL TGF-β1): returned to background levels by 24 h
Type II collagen transcripts ([4]; 10 ng/mL TGF-β1): only detectable in TGF-β1-treated pellets and undifferentiated hMSCs
type X collagen transcripts relative to control pellets ([4]; 10 ng/mL TGF-β1): extremely high levels
COMP expression relative to untreated control pellets [4, 5]: increased expression
SOX9 expression relative to untreated control pellets [4, 5]: increased expression
aggrecan expression relative to untreated control pellets ([4]; 10 ng/mL TGF-β1, days 7, 14 and 21): increased expression
COMP expression, high (10 ng/mL) TGF-β1 relative to low dose TGF-β1 alone ([4]; 21 days): did not significantly alter COMP expression
type X collagen expression, high TGF-β1 relative to low TGF-β1 ([4]; day 21): significant increase
